Measured values: EP0974573A1, “PHENYLPROPENONE COMPOUNDS AND MEDICINES CONTAINING THE SAME” (Kabushiki Kaisha Yakult Honsha, priority 1997, dated 1998)

Key:
[1] = test system: J774.1 strain, an established cell line of mouse macrophage; assay: Inhibitory effects on the accumulation of cholesterol esters in macrophage (Test 2); type: cell-based; details: J774.1 mouse macrophage, 12 hours incubation with cholesterol liposomes
Protocol: Inhibitory effects on the accumulation of cholesterol esters in macrophage were tested using J774.1 strain, an established cell line of mouse macrophage.
Metabolism of LDL in endothelial cells or smooth muscle cells causes downregulation of the LDL receptor by excess free cholesterol in the cells, but in a macrophage, uptake of modified lDL takes place via a scavenger receptor. As no regulation is applied to this pathway, cholesterol esters progressively accumulate without any limitation.
It was therefore studied whether or not corydaline would inhibit intracellular accumulation of cholesterol esters by having liposomes, which were formed of […] cholesterol and phosphatidylcholine, uptaken in macrophage cells and then causing them to act on acyl-CoA:cholesterol acyltransferase which existed on rough-surfaced endoplasmic reticula.
The macrophage cells were incubated for 2 days under 5% CO2 on an RPMI 1640 medium (product of NISSUI PHARMACEUTICAL CO., LTD.) which had been added with 10% fetal bovine serum, penicilin (50 U/mℓ) and streptomycin (50 µg/mℓ). Trypsinization was then conducted, and cells attached to the bottom of each well were peeled off and formulated into a cell suspension. The cells were washed with a fresh supply of the above-described culture medium, and the cell solution was then seeded at 2 x 10^6 cells/mℓ on a 24-well multiple well plate ("25820-24", product of CORNING INC.). After incubation at 37°C under 5% CO2 for 37 hours, the culture medium was replaced with a fresh supply of the above-described culture medium and, after a 0.3 M glucose solution (40 µℓ) with cholesterol [80 µg; containing 0.4 µCi of (^3H)-cholesterol] and phosphatidylcholine (160 µg) contained therein and a methanol solution (10 µℓ)with a test sample dissolved therein were added, incubation was conducted for 12 hours. These procedures were carried out aseptically.
After completion of the incubation, cells attached to each bottom were washed 5 times with a serum-free RPMI 1640 medium by a graduated pipet, and isopropanol (1 mℓ) was added to extract intracellular cholesterol and formed cholesterol esters. The extract was coated in its entirety on a silica gel thin layer chromatography ("Art 5553", product of MERCK & Co., INC.) and subsequent to development with a 80:20:2 mixture of hexane, ethyl ether and formic acid, autoradiography was performed.
A section, which contained ^3H-labelled cholesterol esters and cholesterol, was cut off. Its radioactivity was measured by a liquid scintillation counter and compared with a control, whereby a cholesterol ester accumulation inhibition rate was determined.

[2] = test system: rat-derived ACAT; assay: Inhibitory effects on rat-derived ACAT (Test 1); type: biochemical; details: crude enzyme from microsome protein fractions of rat liver, (14C)-oleoyl-CoA substrate, 37°C
Protocol: To test effects on ACAT, a reaction was conducted in vitro to form (^14C)-cholesteryl oleate from endogeneous cholesterol in the presence of (^14C)-oleoyl-CoA as a substrate by using a crude enzyme prepared from microzome protein fractions of a rat liver.
The reaction mixture had the following composition: 20 µℓ of microsome protein (1.83 mg/mℓ), 20 µℓ of (^14C)-oleoyl-CoA (5 µCi/mℓ, BSA: 96 nmol/mℓ), 106 µℓ of 100 mM phosphate buffer (containing 5 mM of dithiothreitol, pH 7.4) and a sample dissolved in 4 µℓ of methanol or dimethyl sulfoxide; 150 µℓ in total.
The reaction was conducted at 37°C. After an elapse of a predetermined reaction time (18 minutes in general), a 2:1 mixture of chloroform and methanol (5.65 mℓ) was added to terminate the reaction. A 0.04 N aquous solution of hydrochloric acid (0.98 mℓ) and as a carrier, cholesteryl oleate were added, followed by extraction for 20 minutes on a shaking apparatus. The mixture was then allowed to stand overnight in a cold dark place. On the following day, the separated lower chloroform layer was extracted in its entirety and was dried under a nitrogen gas stream. The remaining upper layer was added with the lower layer (5.65 mℓ) of the Folch's partition solution, and was extracted again. After the mixture was allowed to stand overnight in a dark place, the lower layer was drawn in its entirety. This lower layer was combined with the lower chloroform layer fraction, which had already been dried to solid, and the mixture was then dried to solid.
The solid was then dissolved in chlorofrom (200 µℓ), and the solution was coated in its entirety on a G60 plate (aluminum sheet) for silica gel thin layer chromatography. After the solid was developedover 10 cm with a 10:190 mixture of diethyl ether and petroleum ether, autoradiography was conducted and the formation of (^14C)-colesteryl oleate was confirmed. This section was then cut off. The radioactivity of each sample was measured by subjecting it to liquid scintillation counting for 5 minutes in toluene or was measured for 30 minutes by a "Betascope" (manufactured by BETA-GEN INC. The results so obtained are shown in Table 1. Table 1

[3] = test system: SD rats; assay: Plasma cholesterol elevation inhibitory effects on rats loaded with high cholesterol diet, feed-mixed administration (Test 3); type: in vivo, rat; details: 0.005% of compound added to hyperlipemia inducing diet, ad libitum 3 days
Excerpt: Using 5-week old male SD rats (120-150 g, 10 rats per group, individual feeding), plasma cholesterol elevation inhibitory effects of various compounds in the Examples on rats were studied. To a control group, a feed which had been prepared by adding 1.5% of cholesterol, 0.5% of cholic acid, 10% of coconut oil and 10% of sugar to "F-2 Diet" (product of FUNABASHI FARM CO., LTD.) was given ad libitum as a hyperlipemia inducing diet.
To each test-compound-administered group, on the other hand, a feed which had been prepared by adding 0.005% of the corresponding compound in the Examples to the hyperlipemia inducing diet of the above-described composition was given ad libitum. Further, a normal diet group to which a feed similar to the hyperlipemia inducing diet except for the exclusion of cholesterol was also tested similarly. As a testing method, after these feeds were given ad libitum for 3 days, bloods were drawn on the 4th day from the abdominal aortas of the individual rats under anesthesia with Nembutal. Subsequent to collection of plasma from each blood sample, the plasma cholesterol was quantitated by a "DETERMINER TC555 KIT" (product of Kyowa Medex Co., Ltd.) while the HDL cholesterol was quantitated by "DETERMINER HDL KIT" (product of Kyowa Medex Co., Ltd.). The liver cholesterol was measured by extracting it in accordance with the Folch's method and then measuring it with a "DETERMINER TC555 KIT". Statistical processing of the data so obtained was conducted by the Danett's test.

[4] = test system: ACAT; assay: Screening toward substances having ACAT activity inhibitory effects; type: biochemical; details: screening finding, no value given

Row | SMILES | IC50 ([1]; Mus musculus, J774.1, 12 h) [nM] | IC50 [2] [nM] | Inhibitory rate (%) of plasma total cholesterol elevation in rat [3] [%] | IC50 [1] [nM] | ACAT activity inhibitory effects [4]
1 | COc1cc(/C=C/C(=O)Nc2cccc(C)c2C)cc(OC)c1OCc1ccccc1 [Compound 64, N-(2,3-dimethylphenyl)-(2E)-3-(3,5-dimethoxy-4-benzyloxyphenyl)-2-propenamide] | 900 | 35 |  |  | 
2 | COc1cc(/C=C/C(=O)Nc2ccc(Cl)cc2)cc(OC)c1OCc1ccccc1 [Compound 78, N-(4-chlorophenyl)-(2E)-3-(3,5-dimethoxy-4-benzyloxyphenyl)-2-propenamide] | 170 | 35 |  |  | 
3 | CCCCCCCCCCOc1c(OC)cc(/C=C/C(=O)Nc2ccc(Oc3ccccc3)cc2)cc1OC [Compound 55, N-(4-phenoxyphenyl)-(2E)-3-(3,5-dimethoxy-4-decyloxyphenyl)-2-propenamide] |  |  | 34 |  | 
4 | COc1cc(/C=C/C(=O)Nc2c(C)cccc2C)cc(OC)c1OCc1ccccc1 [Compound 66, N-(2,6-dimethylphenyl)-(2E)-3-(3,5-dimethoxy-4-benzyloxyphenyl)-2-propenamide] | 900 | 47 |  |  | 
5 | COc1cc(/C=C/C(=O)N2CCN(c3ccc(C)cc3C)CC2)cc(OC)c1OCCOc1ccccc1 [Compound 24, N-[4-(2,4-dimethylphenyl)-1,4-diazacyclohexyl]-(2E)-3-[3,5-dimethoxy-4-(2-phenoxy)ethyloxy]-2-propenamide] |  |  | 20 | 720 | 
6 | CCCCCCCCCCCCOc1c(OC)cc(/C=C/C(=O)NN2CCN(c3ccc(C)c(C)c3)CC2)cc1OC [Compound 10, N-[4-(3,4-dimethylphenyl)-1,4-diazacyclohexyl]-(2E)-3-(3,5-dimethoxy-4-dodecyloxyphenyl)-2-propenamide] |  | 71 | 33 |  | 
7 | COc1cc(/C=C/C(=O)Nc2cc(C(F)(F)F)cc(C(F)(F)F)c2)cc(OC)c1OCc1ccccc1 [Compound 83, N-(3,5-bistrifluoromethylphenyl)-(2E)-3-(3,5-dimethoxy-4-benzyloxyphenyl)-2-propenamide] | 430 | 60 |  |  | 
8 | CCCCCCOc1c(OC)cc(/C=C/C(=O)N2CCN(c3ccc(C)cc3C)CC2)cc1OC [Compound 13] |  | 79 |  | 200 | 
9 | COc1cc(/C=C/C(=O)Nc2ccc(N(C)C)cc2)cc(OC)c1OCc1ccccc1 [Compound 74, N-[4-(N',N^'-dimethylamino)phenyl]-(2E)-3-(3,5-dimethoxy-4-benzyloxyphenyl)-2-propenamide] |  | 90 |  | 990 | 
10 | COc1cc(/C=C/C(=O)Nc2c(C(C)C)cccc2C(C)C)cc(OC)c1OCc1ccccc1 [Compound 68, N-(2,6-diisopropylphenyl)-(2E)-3-(3,5-dimethoxy-4-benzyloxyphenyl)-2-propenamide] | 790 | 72 |  |  | 
11 | COc1cc(/C=C/C(=O)Nc2ccc(F)cc2)cc(OC)c1OCc1ccccc1 [Compound 77, N-(4-fluorophenyl)-(2E)-3-(3,5-dimethoxy-4-benzyloxyphenyl)-2-propenamide] | 470 | 76 |  |  | 
12 | COc1ccc(NC(=O)/C=C/c2cc(OC)c(OCc3ccccc3)c(OC)c2)cc1 [Compound 72, N-(4-methoxyphenyl)-(2E)-3-(3,5-dimethoxy-4-benzyloxyphenyl)-2-propenamide] | 170 | 35 |  |  | 
13 | COc1cc(/C=C/C(=O)Nc2ccc(C)cc2C)cc(OC)c1OCc1ccccc1 [Compound 63, N-(2,4-dimethylphenyl)-(2E)-3-(3,5-dimethoxy-4-benzyloxyphenyl)-2-propenamide] | 520 | 52 |  |  | 
14 | CCCCCCCCCCCOc1c(OC)cc(/C=C/C(=O)NN2CCN(c3ccc(C)c(C)c3)CC2)cc1OC [Compound 9, N-[4-(3,4-dimethylphenyl)-1,4-diazacyclohexyl]-(2E)-3-(3,5-dimethoxy-4-undecyloxyphenyl)-2-propenamide] |  | 45 | 28 |  | 
15 | CCCCCCCCCCOc1c(OC)cc(/C=C/C(=O)NCCOc2ccccc2)cc1OC [Compound 52, N-(2-phenoxyethyl)-(2E)-3-(3,5-dimethoxy-4-decyloxyphenyl)-2-propenamide] |  |  | 23 |  | 
16 | COc1cc(/C=C/C(=O)Nc2ccc(C)c(C)c2)cc(OC)c1OCc1ccccc1 [Compound 65, N-(3,4-dimethylphenyl)-(2E)-3-(3,5-dimethoxy-4-benzyloxyphenyl)-2-propenamide] | 46 | 47 |  |  | 
17 | COc1cc(/C=C/C(=O)Nc2ccc(C(F)(F)F)cc2)cc(OC)c1OCc1ccccc1 [Compound 82, N-(4-trifluoromethylphenyl)-(2E)-3-(3,5-dimethoxy-4-benzyloxyphenyl)-2-propenamide] | 30 | 42 |  |  | 
18 | CCCCCCCCCCCCOc1c(OC)cc(/C=C/C(=O)NN2CCN(c3ccc(C)cc3C)CC2)cc1OC [Compound 19, N-[4-(2,4-dimethylphenyl)-1,4-diazacyclohexyl]-(2E)-3-(3,5-dimethoxy-4-dodecyloxyphenyl) -2-propenamide] | 250 | 70 |  |  | 
19 | COc1cc(/C=C/C(=O)N2CCN(c3ccc(C)c(C)c3)CC2)cc(OC)c1OCc1ccccc1 [Compound 11, N-[4-(3,4-dimethylphenyl)-1,4-diazacyclohexyl]-(2E)-(3,5-dimethoxy-4-benzyloxyphenyl)-2-propenamide] |  | 60 |  | 189 | 
20 | COc1cc(/C=C/C(=O)CCCCc2ccccc2)ccc1O [yakutinone B] |  |  |  |  | exhibits ACAT activity inhibitory effects
21 | COc1cc(/C=C/C(=O)Nc2ccc(C)cc2)cc(OC)c1OCc1ccccc1 [Compound 71, N-(4-methylphenyl)-(2E)-3-(3,5-dimethoxy-4-benzyloxyphenyl)-2-propenamide] | 120 | 37 |  |  | 
